Measurements reported in patent publication US20160354443A1, “Replacement Therapy for Natriuretic Peptide Deficiencies” (priority 2014, published 2016).
Positions of bridges follow the written chain, without caps; N, C: chain ends. Non-standard residues stand in square brackets, D forms with d. Residues, ends and D or L forms follow the SMILES beside them. *: point of attachment. X1 = N=C(N)NCCC[C@H]1C(=O)N[C@@H](C(N)=O)CN1*; dNle = CCCC[C@@H](N)C(=O)O; Heptanoyl = CCCCCCC(=O)*

Legend:
[1] = Potter et al. 2009; cited from earlier work
rat NPRA = molecular target: T1, rat NPRA (Rattus norvegicus, UniProt P18910); assay: cGMP generation in HEK cells expressing rat NPRA; assay type: cell-based; settings: mean ± SD
T1 construct: expressed in transfected cells; host or cells: HEK cell line
T1 sequence (P18910 29-1057): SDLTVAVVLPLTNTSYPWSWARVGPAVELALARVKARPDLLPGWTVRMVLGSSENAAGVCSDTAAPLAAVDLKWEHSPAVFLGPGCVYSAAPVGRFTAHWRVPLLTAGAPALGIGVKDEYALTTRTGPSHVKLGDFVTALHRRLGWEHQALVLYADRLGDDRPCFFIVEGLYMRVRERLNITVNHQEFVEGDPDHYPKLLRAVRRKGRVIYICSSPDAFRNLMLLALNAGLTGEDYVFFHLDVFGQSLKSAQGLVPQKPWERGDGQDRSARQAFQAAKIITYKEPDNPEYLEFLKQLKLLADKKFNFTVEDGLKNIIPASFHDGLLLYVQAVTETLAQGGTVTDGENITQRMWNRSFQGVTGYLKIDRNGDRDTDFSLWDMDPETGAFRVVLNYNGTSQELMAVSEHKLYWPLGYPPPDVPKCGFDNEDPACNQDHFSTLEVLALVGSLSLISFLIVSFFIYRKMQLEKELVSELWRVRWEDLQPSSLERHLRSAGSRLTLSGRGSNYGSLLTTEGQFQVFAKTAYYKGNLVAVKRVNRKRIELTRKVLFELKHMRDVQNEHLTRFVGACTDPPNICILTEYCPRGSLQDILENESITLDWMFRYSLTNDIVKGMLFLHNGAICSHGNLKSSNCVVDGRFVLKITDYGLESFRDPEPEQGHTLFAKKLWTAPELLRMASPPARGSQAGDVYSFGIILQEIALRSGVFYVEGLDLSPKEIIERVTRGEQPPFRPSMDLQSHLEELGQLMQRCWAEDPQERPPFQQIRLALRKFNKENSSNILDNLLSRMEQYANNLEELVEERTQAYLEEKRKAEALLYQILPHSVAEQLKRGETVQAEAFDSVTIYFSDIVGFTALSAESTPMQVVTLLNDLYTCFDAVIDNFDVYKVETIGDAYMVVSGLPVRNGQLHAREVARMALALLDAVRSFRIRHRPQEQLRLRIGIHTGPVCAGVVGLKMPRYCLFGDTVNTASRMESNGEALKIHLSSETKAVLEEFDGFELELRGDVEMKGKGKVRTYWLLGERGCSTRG

plasma cGMP = assay: Safety study in healthy volunteers: pharmacodynamic parameters (plasma cGMP); assay type: in vivo, human; settings: mean ± SD
Protocol: (§1) In a safety study, the mimetic of formula IV was administered to healthy volunteers. Doses of 0.1, 0.3, 0.7 and 1.0 μg/kg of the mimetic of formula IV were administered.
(§2) Kel is the apparent terminal elimination rate constant, calculated by linear regression of the terminal linear portion of the log concentration versus the time curve. The plasma cGMP concentrations returned to baseline levels by approximately 8 hours after dosing following 0.7 μg/kg and 1.0 μg/kg of the mimetic of formula IV.

[2] = as above; assay type: in vivo, human; settings: human, in vivo, mean ± SD, read-out: t½ (converted)
Protocol: as §1, §2

human NPRA = molecular target: T2, human NPRA (Homo sapiens, UniProt P16066); assay: cGMP generation in HEK cells expressing human NPRA; assay type: cell-based; settings: mean ± SD
T2 sequence (P16066 33-1061): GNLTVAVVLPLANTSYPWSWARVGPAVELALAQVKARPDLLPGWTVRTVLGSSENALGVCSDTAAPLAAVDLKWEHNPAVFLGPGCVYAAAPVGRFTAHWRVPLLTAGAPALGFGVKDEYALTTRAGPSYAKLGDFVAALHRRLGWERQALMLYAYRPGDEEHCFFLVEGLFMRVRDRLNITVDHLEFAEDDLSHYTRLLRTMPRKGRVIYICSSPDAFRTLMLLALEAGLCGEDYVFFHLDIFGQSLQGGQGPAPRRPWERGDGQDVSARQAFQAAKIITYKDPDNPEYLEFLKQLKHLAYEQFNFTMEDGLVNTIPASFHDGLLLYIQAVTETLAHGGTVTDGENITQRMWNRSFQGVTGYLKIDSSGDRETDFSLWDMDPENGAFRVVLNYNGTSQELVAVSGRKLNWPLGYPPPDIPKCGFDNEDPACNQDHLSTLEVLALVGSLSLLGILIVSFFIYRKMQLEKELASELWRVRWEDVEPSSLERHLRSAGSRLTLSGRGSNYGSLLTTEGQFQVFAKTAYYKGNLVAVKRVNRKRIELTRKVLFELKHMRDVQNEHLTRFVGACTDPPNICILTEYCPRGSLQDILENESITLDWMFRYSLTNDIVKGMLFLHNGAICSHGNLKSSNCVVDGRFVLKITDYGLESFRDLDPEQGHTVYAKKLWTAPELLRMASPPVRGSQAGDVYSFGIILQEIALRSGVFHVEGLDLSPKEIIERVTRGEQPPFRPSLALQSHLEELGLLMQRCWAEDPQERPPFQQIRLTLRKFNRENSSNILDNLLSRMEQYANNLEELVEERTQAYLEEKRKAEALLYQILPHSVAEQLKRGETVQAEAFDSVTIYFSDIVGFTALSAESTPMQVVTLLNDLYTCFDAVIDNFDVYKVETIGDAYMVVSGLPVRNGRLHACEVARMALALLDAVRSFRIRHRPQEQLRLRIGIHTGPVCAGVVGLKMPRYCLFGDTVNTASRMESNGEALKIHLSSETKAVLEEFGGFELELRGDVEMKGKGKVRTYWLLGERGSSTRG
Protocol: Functional evaluation of natriuretic peptide mimetics was performed by measuring the accumulation of intracellular cGMP in HEK-293 cells that express recombinant hNPR-A. HEK-NPRA cells were harvested by washing and centrifugation in Cell Dissociation Buffer (Gibco, Life Technologies). Pelleted cells were resuspended in Hank's Balanced Salt Solution (HBSS) containing 10 mM Hepes (pH 7.4), 5 mM MgCl2, 200 mM L-glutamine, 1 mM 1,10-phenanthroline and BSA (0.5 mg/mL). Following centrifugation, cells were resuspended in the above buffer supplemented with 0.5 mM 3-isobutyl-1-methylxanthine (IBMX). […] The reaction was terminated by lysis of the cells with temperature shock. […] Accumulation of cGMP was measured using the cGMP Flashplate RIA (Perkin-Elmer). Data analysis and EC50 values were determined by using nonlinear regression analysis with GraphPad Prism® software.

hNPRB (human NPRB) = molecular target: T3, hNPRB (human NPRB) (Homo sapiens, UniProt P20594); assay: NPRB functional assay (cGMP generation) in HEK cell line; assay type: cell-based; settings: HEK293, mean ± SD, read-out: hNPRB Function (cGMP) Emax (%)
T3 construct: expressed in transfected cells; host or cells: HEK cell line
T3 sequence (P20594 23-1047): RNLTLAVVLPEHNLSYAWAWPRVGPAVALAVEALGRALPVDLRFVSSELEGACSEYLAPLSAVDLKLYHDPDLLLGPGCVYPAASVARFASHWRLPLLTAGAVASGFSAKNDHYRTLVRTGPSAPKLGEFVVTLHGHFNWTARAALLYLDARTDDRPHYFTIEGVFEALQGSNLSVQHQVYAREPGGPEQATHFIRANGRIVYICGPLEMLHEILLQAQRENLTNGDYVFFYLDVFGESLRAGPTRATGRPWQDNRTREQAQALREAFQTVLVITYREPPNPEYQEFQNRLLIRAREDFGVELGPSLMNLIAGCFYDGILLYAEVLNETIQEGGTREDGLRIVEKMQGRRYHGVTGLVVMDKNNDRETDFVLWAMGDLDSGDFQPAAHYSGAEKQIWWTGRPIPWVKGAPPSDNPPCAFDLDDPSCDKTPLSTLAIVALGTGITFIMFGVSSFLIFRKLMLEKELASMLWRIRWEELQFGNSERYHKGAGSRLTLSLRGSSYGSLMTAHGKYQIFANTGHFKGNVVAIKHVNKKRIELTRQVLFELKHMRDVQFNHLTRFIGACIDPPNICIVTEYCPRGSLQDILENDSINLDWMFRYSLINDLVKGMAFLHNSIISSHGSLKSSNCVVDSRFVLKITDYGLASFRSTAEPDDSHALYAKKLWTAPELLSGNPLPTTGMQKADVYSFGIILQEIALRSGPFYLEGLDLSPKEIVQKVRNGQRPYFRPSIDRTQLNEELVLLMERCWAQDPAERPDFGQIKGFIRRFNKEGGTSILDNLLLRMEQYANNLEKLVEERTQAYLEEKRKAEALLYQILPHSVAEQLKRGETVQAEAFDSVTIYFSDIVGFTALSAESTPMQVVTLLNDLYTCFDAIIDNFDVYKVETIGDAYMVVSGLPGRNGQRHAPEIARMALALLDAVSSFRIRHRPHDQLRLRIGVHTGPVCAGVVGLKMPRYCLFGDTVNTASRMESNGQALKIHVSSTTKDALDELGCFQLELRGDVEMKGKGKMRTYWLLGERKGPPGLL

[3] = Human clinical trial, subcutaneous formulation: half life; settings: in vivo, sc, subcutaneously administered formulation
Protocol: In a human clinical trial of a subcutaneously administered formulation in which the mimetic of formula IV was the active pharmaceutical ingredient, the half life of the mimetic of formula IV was determined to be approximately 3 hours. The mimetic of formula IV lead to a mean peak increase in plasma cGMP concentration of 1.7 ng/mL at a dose of 0.3 μg/kg of the mimetic of formula IV as a single, subcutaneous injection.

CC[C@H](C)[C@@H]1NC(=O)[C@H](CCCNC(=N)N)NC(=O)[C@H](CC(=O)O)NC(=O)[C@H](CC(C)C)NC(=O)[C@H](CCCCN)NC(=O)[C@H](CC(C)C)NC(=O)CNC(=O)[C@H](Cc2ccccc2)NC(=O)[C@@H](NC(=O)CNC(=O)[C@H](CCCCN)NC(=O)[C@H](CO)NC(=O)[C@H](CC(C)C)NC(=O)CN)CSSC[C@@H](C(=O)O)NC(=O)CNC(=O)[C@H](CC(C)C)NC(=O)CNC(=O)[C@H](CO)NC(=O)[C@H](CCSC)NC(=O)[C@H](CO)NC(=O)CNC1=O [hCNP]
reported human plasma half-life [1]: about 2 minutes

CCCCCCC(=O)N[C@H]1CSSC[C@@H](C(=O)N[C@@H](Cc2ccc(O)cc2)C(=O)N2C[C@H](C(N)=O)NC(=O)[C@@H]2CCCNC(=N)N)NC(=O)[C@H](CO)NC(=O)[C@H]([C@@H](C)CC)NC(=O)[C@H](CCCNC(=N)N)NC(=O)[C@H](CC(=O)O)NC(=O)[C@@H](CCCC)NC(=O)[C@H](CCCNC(=N)N)NC(=O)CNC(=O)[C@@H](C)NC(=O)[C@H](Cc2ccccc2)NC(=O)[C@H](Cc2c[nH]cn2)NC1=O [mimetic of formula IV] (Heptanoyl-CHF[dA]GR[dNle]DRISCY-X1; disulfide 1-12)
Function (cGMP) Emax (% of ANP response) (rat NPRA): 98 ± 7 % of ANP response
Kel (apparent terminal elimination rate constant) (plasma cGMP; dose 0.7 μg/kg): 0.231 ± 0.025 h⁻¹
Kel (apparent terminal elimination rate constant) (plasma cGMP; dose 1.0 μg/kg): 1.05 ± 1.22 h⁻¹
half-life ([2]; 0.7 ug/kg): 3.03 ± 0.345 h
half-life ([2]; 1 ug/kg): 2.98 ± 3.61 h
Emax (human NPRA; HEK293, hNPRA, read-out: hNPRA Function (cGMP) Emax (%)): 94 ± 8%
Function (cGMP) Emax (% of ANP response) (human NPRA; human NPRA): 94 ± 8 % of ANP response
Emax (hNPRB (human NPRB)): 1 ± 1%
half-life [3]: ~3 h
